From patent US3960834A, “Method for preparing 3-(methylmercaptol) propylaminobleomycin” (priority 1973, dated 1976)
Where two headings read alike, the source gives them in different places.

Legend:
[1] = tested on: Mycobacterium smegmatis 607; assay: antimicrobial activity against Mycobacterium smegmatis 607; type: cell-based
[2] = tested on: Ehrlich ascites carcinoma cells; conditions: for Mean surviving days: intraperitoneally once a day for 10 days, observed up to 50 days; for ED50: Table 3, maximum dose level at which they survive 100 to 200% of the survival days for the control; for LD50 /ED50 = Index: mouse, in vivo, ip
[3] = tested on: ICR mouse bearing cancer
Experimental: Mice of ICR/JCL strain (male 5 weeks old, five for one group) are inoculated with Ehrlich ascites carcinoma cells in a dose of 2 millions/mouse.
LD50 is calculated by Behrens-Karber's method from the group poisoned at high dose levels.

[4] = solubility; type: physicochemical
[5] = tested on: Ehrlich ascites carcinoma cells; assay: animal or person; conditions: Mus musculus, ip
[6] = ICR mouse bearing cancer, daily intraperitoneal administration for 10 days
[7] = Table 3, Behrens-Karber's method, from the group poisoned at high dose levels

Molecule | antimicrobial activity (potency) [1] | Mean surviving days ([2]; 0.19 mg/kg) [days] | Mean surviving days ([2]; 0.39 mg/kg) [days] | Mean surviving days ([2]; 0.78 mg/kg) [days] | Mean surviving days ([2]; 1.56 mg/kg) [days] | Mean surviving days ([2]; 3.12 mg/kg) [days] | Mean surviving days ([2]; 6.25 mg/kg) [days] | Mean surviving days ([2]; 12.5 mg/kg) [days] | Mean surviving days ([2]; 25 mg/kg) [days] | ED50 [2] | LD50 /ED50 = Index [2] | LD50 [3, 6] [mg/kg] | LD50 [3, 7] | solubility in organic solvents ([4]; ethanol, propanol, butanol, ethyl acetate, ether, acetone, petroleum ether, benzene, and toluene) | solubility in water and methanol ([4]; water and methanol) | toxicity compared with bleomycin A2 ([3]; from LD50, ICR mouse bearing cancer, daily intraperitoneal for 10 days) | ED50 [5] [mg/kg]
3-(S,S-dimethylmercapto)propylaminobleomycin [Bleomycin A2, reference compound] | 1000 mcg potency/mg | 13.6 | 15.4 | 17.2 | > 33 | > 36 | > 28.4 | 25 | 10.8 | 0.78 | 12 | 12.5 | 9.4 |  |  |  | 
CSCCCNC(=O)c1csc(-c2csc(CCNC(=O)[C@@H](NC(=O)[C@@H](C)[C@H](O)[C@@H](C)NC(=O)[C@@H](NC(=O)c3nc([C@H](CC(N)=O)NC[C@H](N)C(N)=O)nc(N)c3C)[C@@H](O[C@@H]3O[C@@H](CO)[C@@H](O)[C@H](O)[C@@H]3O[C@H]3O[C@H](CO)[C@@H](O)[C@H](OC(N)=O)[C@@H]3O)c3cnc[nH]3)[C@@H](C)O)n2)n1 [Demethylbleomycin A2, 3-(methylmercapto)propylaminobleomycin] | 2,458 mcg potency/mg | 20.2 | 24.0 | 31.2 | 28.6 | 34.6 | 49 | 40.5 | 29.0 | 0.78 | 23 | 22.5 | 18.0 | insoluble | soluble | decreased to about half as much | 
CO[C@@]12[C@H](COC(N)=O)C3=C(C(=O)C(C)=C(N)C3=O)N1C[C@@H]1N[C@@H]12 [Mitomycin C] |  |  |  |  |  |  |  |  |  |  |  |  |  |  |  |  | 0.39
